# Like-named read-outs stand apart in the source and are kept apart here.
# Biological target: ACE (Ovis aries, UniProt A0ACI6QSL6)
# Experiment: In vitro colorimetric ACE inhibition assay (HHL substrate, hippuric acid release, 410 nm)
# Type: biochemical, sheep
# Procedure: The ACE enzyme extract was preincubated with various concentrations of test compounds (4a–f) ranging from 250 nM to 25 μM, alongside the standard lisinopril (100–500 nM), for 10 minutes at 37 °C. The reaction was initiated by adding sodium borate buffer containing 0.3 M sodium chloride and 5 mM HHL, followed by a 30 minutes incubation at 37 °C. To terminate the reaction, 60 μL of 1 M HCl was added, which was subsequently followed by the addition of 120 μL of pyridine and 60 μL of benzene sulfonyl chloride for color development. The mixture was then cooled on ice for 5 minutes, and the resulting yellow color was measured spectrophotometrically at 410 nm. The reduction in HA concentration during the inhibition reaction, compared with that during the control reaction, was expressed as % inhibition, and the IC50 values were calculated via semilogarithmic plots. […] The IC50 values for the compounds and the standard lisinopril are presented in Table 1, and a bar graph comprising % inhibition is depicted in Fig. 2.
# Sheep kidney acetone powder was prepared in the laboratory according to a modified protocol by Hector et al.[24] Fresh sheep kidney tissue was homogenized with prechilled acetone (1 : 3) and vacuum-filtered using a Buchner funnel. Re-extraction was performed until the solid residue turned colorless. This residue was air-dried and sifted to obtain a uniform powder, which was stored in an airtight container at 0–4 °C.
# ACE was extracted from the prepared acetone powder as described by Jimsheena et al.[25] One gram of acetone powder was extracted via 10 mL of sodium borate buffer (0.05 M, pH 8.2) containing 0.3 M sodium chloride and 0.5% Triton X-100 at 4 °C for 18 hours. This extract was later centrifuged at 15 000g for 60 minutes at 4 °C. The supernatant was collected and dialyzed against the same buffer without Triton X-100 (3 L, the buffer was changed 3 times) for 24 hours. This extract was stored at −20 °C until further use. The specific activity was 0.8234 units per mg of protein.
# ACE activity was calculated by measuring the release of hippuric acid (HA) from the substrate hippuryl-histidyl-leucine (HHL). One unit of ACE activity is defined as the amount of enzyme that releases 1 μmol of HA per minute at 37 °C and pH 8.2. The ACE enzyme extract was preincubated with different concentrations of the test compounds (250 nM to 25 μM) and a standard drug solution (lisinopril, 100–500 nM) for 10 minutes at 37 °C. The reaction was initiated by the addition of sodium borate buffer (0.05 M, pH 8.2) containing 0.3 M sodium chloride and 5 mM HHL. The mixture was incubated at 37 °C for 30 minutes, followed by the addition of 60 μL of 1 M HCl to stop the reaction. This was followed by the addition of 120 μL of pyridine and 60 μL of […] sulfonyl chloride (BSC) for color development. The mixture was mixed gently and cooled on ice for 5 minutes. The yellow color developed was measured spectrophotometrically at 410 nm.[25] The reduced HA concentration in the inhibition reaction compared with the control reaction is expressed as % inhibition, which was calculated as:% inhibition = 100 − (Atest/Acontrol) × 100,where Atest = absorbance of the test reaction and Acontrol = absorbance of the control reaction.
# [1] = sheep kidney ACE extract, HHL substrate, 37 °C, pH 8.2, read-out: IC50 against the ACE
# Sequence of ACE (A0ACI6QSL6 entry or part of it): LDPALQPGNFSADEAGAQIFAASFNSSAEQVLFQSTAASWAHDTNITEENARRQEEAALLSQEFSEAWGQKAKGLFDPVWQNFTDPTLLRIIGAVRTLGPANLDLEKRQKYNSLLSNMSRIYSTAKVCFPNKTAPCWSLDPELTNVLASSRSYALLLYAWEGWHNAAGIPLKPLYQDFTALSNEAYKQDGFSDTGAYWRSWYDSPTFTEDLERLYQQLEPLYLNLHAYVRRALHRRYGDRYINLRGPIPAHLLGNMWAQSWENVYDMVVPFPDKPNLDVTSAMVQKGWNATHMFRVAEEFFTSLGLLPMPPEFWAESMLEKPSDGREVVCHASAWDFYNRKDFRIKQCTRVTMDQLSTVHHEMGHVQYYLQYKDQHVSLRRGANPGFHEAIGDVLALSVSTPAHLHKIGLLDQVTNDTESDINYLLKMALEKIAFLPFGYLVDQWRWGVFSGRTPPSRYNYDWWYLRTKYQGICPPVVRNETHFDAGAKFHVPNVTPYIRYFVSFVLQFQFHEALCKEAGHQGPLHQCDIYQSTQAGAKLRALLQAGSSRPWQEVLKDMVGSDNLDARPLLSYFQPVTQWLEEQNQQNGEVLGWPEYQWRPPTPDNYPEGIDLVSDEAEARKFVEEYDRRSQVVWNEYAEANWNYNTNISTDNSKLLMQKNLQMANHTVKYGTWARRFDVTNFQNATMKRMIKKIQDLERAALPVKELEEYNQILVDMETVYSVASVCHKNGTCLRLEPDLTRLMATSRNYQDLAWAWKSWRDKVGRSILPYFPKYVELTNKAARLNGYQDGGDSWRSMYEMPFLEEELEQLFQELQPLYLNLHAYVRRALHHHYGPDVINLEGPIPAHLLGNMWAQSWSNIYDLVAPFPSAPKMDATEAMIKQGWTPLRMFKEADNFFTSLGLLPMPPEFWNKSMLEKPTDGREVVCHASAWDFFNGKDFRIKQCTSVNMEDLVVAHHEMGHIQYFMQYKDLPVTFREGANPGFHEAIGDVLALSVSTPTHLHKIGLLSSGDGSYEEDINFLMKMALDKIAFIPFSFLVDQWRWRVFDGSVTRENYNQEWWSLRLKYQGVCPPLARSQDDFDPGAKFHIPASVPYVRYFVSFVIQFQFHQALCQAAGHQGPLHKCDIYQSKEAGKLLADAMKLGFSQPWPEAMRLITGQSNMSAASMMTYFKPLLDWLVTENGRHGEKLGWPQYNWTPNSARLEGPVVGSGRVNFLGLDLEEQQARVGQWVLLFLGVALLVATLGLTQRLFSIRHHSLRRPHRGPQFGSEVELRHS
Molecule,IC50 [1] [nM],IC50 [nM]
"CCCCc1nc(Cl)c(CO)n1CC(O)c1ccc(C)cc1 (stereo not shown) [4c, 2-(2-Butyl-4-chloro-5-(hydroxymethyl)-1H-imidazol-1-yl)-1-(p-tolyl)ethan-1-ol]",1560 ± 65,
2-(2-Butyl-4-chloro-5-(hydroxymethyl)-1H-imidazol-1-yl)-1-(naphthalen-1-yl)ethan-1-ol [4d],2120 ± 15,
"NCCCC[C@H](N[C@@H](CCc1ccccc1)C(=O)O)C(=O)N1CCC[C@H]1C(=O)O [Lisinopril, reference compound]",,300 ± 135
"CCCCc1nc(Cl)c(CO)n1CC(O)c1ccc(Cl)cc1 (stereo not shown) [4e, 2-(2-Butyl-4-chloro-5-(hydroxymethyl)-1H-imidazol-1-yl)-1-(4-chlorophenyl)ethan-1-ol]",4890 ± 68,
"CCCCc1nc(Cl)c(CO)n1CC(O)c1ccc([N+](=O)[O-])cc1 (stereo not shown) [4b, 2-(2-Butyl-4-chloro-5-(hydroxymethyl)-1H-imidazol-1-yl)-1-(4-nitrophenyl)ethan-1-ol]",1310 ± 26,
"CCCCc1nc(Cl)c(CO)n1CC(O)c1ccc(OC)cc1 (stereo not shown) [4a, 2-(2-Butyl-4-chloro-5-(hydroxymethyl)-1H-imidazol-1-yl)-1-(4-methoxyphenyl)ethan-1-ol]",2470 ± 102,
"CCCCc1nc(Cl)c(CO)n1CC(O)c1ccc(F)cc1 (stereo not shown) [4f, 2-(2-Butyl-4-chloro-5-(hydroxymethyl)-1H-imidazol-1-yl)-1-(4-fluorophenyl)ethan-1-ol]",7570 ± 85,
